Data as given in ChEMBL document CHEMBL5113466, “Design, synthesis, and bioactivity evaluation of macrocyclic benzo[b]pyrido[4,3-e][1,4]oxazine derivatives as novel Pim-1 kinase inhibitors” (Bioorg Med Chem Lett, 2022).
pIC50: −log10 of the molar value.

Tests used:
[1] = target: Serine/threonine-protein kinase pim-1 (Homo sapiens, UniProt P11309); test: Inhibition of Pim-1 (unknown origin) measured by ADP-Glo kinase assay
[2] = test system: MDA-MB-231; test: Antiproliferative activity against human […] cells measured by cell viability assay; type: functional, cell-based

Chain of Serine/threonine-protein kinase pim-1 (P11309 whole entry): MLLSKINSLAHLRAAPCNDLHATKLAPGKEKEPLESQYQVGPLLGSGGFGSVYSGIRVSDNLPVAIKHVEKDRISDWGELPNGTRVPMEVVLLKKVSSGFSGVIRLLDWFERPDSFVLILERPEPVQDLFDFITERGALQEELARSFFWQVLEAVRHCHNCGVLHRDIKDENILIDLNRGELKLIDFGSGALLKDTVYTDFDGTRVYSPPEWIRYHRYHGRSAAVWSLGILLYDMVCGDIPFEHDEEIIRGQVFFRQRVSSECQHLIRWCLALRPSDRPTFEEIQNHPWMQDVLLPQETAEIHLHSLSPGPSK

Compound	pIC50 [1]	pIC50 [2]
c1cc2c(cn1)Oc1ccc3cc1N2CCOCCNCCCCO3	6.33	4.36
c1cc2c(cn1)Oc1ccc3cc1N2CCOCCNCCCCCO3	5.66	4.45
c1cc2c(cn1)Oc1ccc3cc1N2CCCCNCCCCCO3	6.57	4.79
c1cc2c(cn1)Oc1ccc3cc1N2CCCCNCCCCO3	6.36	4.72
c1cc2c(cn1)Oc1ccc3cc1N2CCOCCNCCCO3	6.06	4.52

Now those with a higher pIC50 [1], led by results:

pIC50 [1]	pIC50 [2]	Compound
6.86	4.59	c1cc2c(cn1)Oc1ccc3cc1N2CCCCCNCCOCCO3
6.75	4.91	c1cc2c(cn1)Oc1ccc3cc1N2CCCCNCCOCCO3
7.45	5.09	c1cc2c(cn1)Oc1ccc3cc1N2CCCCCNCCCCO3
7.24	4.71	c1cc2c(cn1)Oc1ccc3cc1N2CCCNCCOCCO3
